Results: US11110091B2, “Modulators of toll-like receptors” (Gilead Sciences, Inc., priority 2008, dated 2021)

Tested on: human Peripheral Blood Mononuclear Cell (PMBC)
Experiment: PBMC assay: cytokine (IFN-α) stimulation at 24 hours
Assay type: cell-based
Conditions: lowest concentration stimulating IFN-α production at least 3-fold over background, Luminex, read-out: IFN MEC
Method: Assays were conducted to determine cytokine stimulation at 24 hours from human Peripheral Blood Mononuclear Cell (PMBC) using the compounds of the present invention. The assays were run in duplicate, with 8-point, half-log dilution curves. The compounds of the present invention were diluted from 10 mM DMSO solution. Cell supernatants are assayed directly for IFNα and 1:10 dilution for TNFα. The assays were performed in a similar fashion as described in Bioorg. […] Specifically, cryo-preserved PBMCs were thawed and seeded 96 well plates with 750,000 cells/well in 190 μL/well cell media. The PBMCs were then incubated for 1 hour at 37° C. at 5% CO2. Then, the compounds of the present invention were added in 10 μL cell media at 8 point, half-log dilution titration. The plates were incubated at 37° C. and 5% CO2 for 24 hours and then spinned at 1200 rpm for 10 min, which was followed by collecting supernatant and storing the same at −80° C. Cytokine secretion was assayed with Luminex and Upstate multi-plex kits, using a Luminex analysis instrument. The IFN-α MEC value for a compound was the lowest concentration at which the compound stimulated IFN-α production at least 3-fold over the background as determined using the assay method above.

Row | SMILES | minimal effective concentration [µM]
1 | CCCN(C)C(=O)c1nc(N)c2[nH]c(=O)c(=O)n(Cc3cccc(CN4CCCC4)c3)c2n1 [Example 92] | > 0.03
2 | Nc1nc(NCC2CCCO2)nc2c1NC(=O)CN2Cc1cccc(CN2CCCC2)c1 (stereo not drawn) [Example 77] | > 0.03
3 | COCCOc1nc(N)c2[nH]c(=O)c(=O)n(Cc3cccc(CN4CCCC4)c3)c2n1 [Example 91] | > 0.03
4 | Nc1nc(NC2CC2)nc2c1NC(=O)CN2Cc1cccc(CN2CCCC2)c1 [Example 35] | > 0.03
5 | CCCCOc1nc(N)c2c(n1)N(Cc1cccc(CN3CCCC3)c1)CCC(=O)N2 [Example 50] | > 0.03
6 | CC(C)(C)CNc1nc(N)c2c(n1)N(Cc1cccc(CN3CCCC3)c1)CC(=O)N2 [Example 34] | > 0.03
7 | Nc1nc(OCCC2CC2)nc2c1NC(=O)CN2Cc1cccc(CN2CCCC2)c1 [Example 9, 4-amino-2-{2′″-(cyclopropyl)ethoxy}-8-[3′-(pyrrolidin-1″-ylmethyl)-benzyl]-5,6,7,8-tetrahydropteridin-6-one] | ≤ 0.03
8 | Nc1nc(OCCn2ccnc2)nc2c1NC(=O)CN2Cc1cccc(CN2CCCC2)c1 [Example 19] | > 0.03
9 | CCCCOc1nc(N)c2c(n1)N(Cc1ccc(-c3ccc(CN4CCCC4)cc3)cc1)CC(=O)N2 [Example 100] | ≤ 0.03
10 | CCCCCc1nc(N)c2c(n1)N(Cc1cccc(CN3CCCC3)c1)CC(=O)N2 [Example 53] | > 0.03
11 | CC1(COc2nc(N)c3c(n2)N(Cc2cccc(CN4CCCC4)c2)CC(=O)N3)CC1 [Example 6, 4-amino-2-{(1′″-methylcycloprop-1′″-yl)methoxy}-8-[3′-(pyrrolidin-1″-ylmethyl)-benzyl]-5,6,7,8-tetrahydropteridin-6-one] | > 0.03
12 | CCCCOc1nc(N)c2c(n1)N(CCC1CCN(CC3CC3)CC1)CC(=O)N2 [Example 113] | ≤ 0.03
13 | CCC[C@@H](C)Oc1nc(N)c2c(n1)N(Cc1cccc(CN3CCCC3)c1)CC(=O)N2 [Example 58] | > 0.03
14 | Cc1ccc(CN2CC(=O)Nc3c(N)nc(OCC4CCCO4)nc32)cn1 (stereo not drawn) [Example 114] | > 0.03
15 | CCCCOc1nc(N)c2[nH]c(=O)c(=O)n(Cc3cccc(CN4CCCC4)c3)c2n1 [Example 83] | ≤ 0.03
16 | CCCCNc1nc(N)c2c(n1)N(Cc1cccc(CN3CCCC3)c1)CCC(=O)N2 [Example 76] | > 0.03
17 | Nc1nc(OCC2CCCCC2)nc2c1NC(=O)CN2Cc1cccc(CN2CCCC2)c1 [Example 13] | > 0.03
18 | Nc1nc(OCC2CCCO2)nc2c1NC(=O)CN2Cc1cccc(CN2CCCC2)c1 (stereo not drawn) [Example 29] | > 0.03
19 | CCCCOc1nc(N)c2c(n1)N(Cc1ccc(-c3cccc(CN4CCCC4)c3)cc1)CC(=O)N2 [Example 96] | ≤ 0.03
20 | CCCCOc1nc(N)c2c(n1)N(Cc1ccc3c(c1)CCNC3)CC(=O)N2 [Example 103] | ≤ 0.03
21 | Nc1nc(N[C@@H]2CCOC2)nc2c1NC(=O)CN2Cc1cccc(CN2CCCC2)c1 [Example 46] | > 0.03
22 | CCCN(C)C(=O)c1nc(N)c2c(n1)N(Cc1ccc(CN3CCCC3)cc1)CC(=O)N2 [Example 85] | > 0.03
23 | CCCC(C)Oc1nc(N)c2c(n1)N(Cc1cccc(CN3CCCC3)c1)CC(=O)N2 (stereo not drawn) [Example 24] | ≤ 0.03
24 | CCCCNc1nc(N)c2c(n1)N(Cc1ccnc(N3CCOCC3)c1)CC(=O)N2 [Example 78] | > 0.03
25 | Nc1nc(OCCOc2ccccc2)nc2c1NC(=O)CN2Cc1cccc(CN2CCCC2)c1 [Example 23] | > 0.03
26 | COCCOc1nc(N)c2[nH]c(=O)c(=O)n(Cc3ccc(-c4cccc(CN5CCCC5)c4)cc3)c2n1 [Example 95] | ≤ 0.03

Row | SMILES | minimal effective concentration [µM]
27 | Nc1nc(OCc2ccccc2)nc2c1NC(=O)CN2Cc1cccc(CN2CCCC2)c1 [Example 15] | > 0.03
28 | CCCCOc1nc(N)c2c(n1)N(Cc1cccc(CN3CCCC3)c1)C(C)C(=O)N2 (stereo not drawn) [Example 64] | > 0.03
29 | CCC[C@H](C)Oc1nc(N)c2c(n1)N(Cc1cccc(CN3CCCC3)c1)CC(=O)N2 [Example 59] | ≤ 0.03
30 | Nc1nc(NC2CCCCC2)nc2c1NC(=O)CN2Cc1cccc(CN2CCCC2)c1 [Example 36] | > 0.03
31 | Nc1nc(NCc2ccco2)nc2c1NC(=O)CN2Cc1cccc(CN2CCCC2)c1 [Example 38] | ≤ 0.03
32 | CCCCCOc1nc(N)c2c(n1)N(Cc1cccc(CN3CCCC3)c1)CC(=O)N2 [Example 12] | > 0.03
33 | CCCCOc1nc(N)c2c(n1)N(Cc1cccc(CN3C(C)CCC3C)c1)CC(=O)N2 (stereo not drawn) [Example 102] | ≤ 0.03
34 | COCCOc1nc(N)c2[nH]c(=O)c(=O)n(Cc3ccc(-c4ccc(CN5CCCC5)cc4)cc3)c2n1 [Example 99] | ≤ 0.03
35 | CCCCOc1nc(N)c2c(n1)N(Cc1cccc(CN3CCCC3)c1)C(O)C(=O)N2 (stereo not drawn) [Example 82] | ≤ 0.03
36 | CCCCOc1nc(N)c2c(n1)N(Cc1cccc(CN3CCC(C(=O)O)CC3)c1)CC(=O)N2 [Example 75] | > 0.03
37 | Nc1nc(OCCN2CCCC2=O)nc2c1NC(=O)CN2Cc1cccc(CN2CCCC2)c1 [Example 22] | > 0.03
38 | Nc1nc(NC2CCCC2)nc2c1NC(=O)CN2Cc1cccc(CN2CCCC2)c1 [Example 41] | ≤ 0.03
39 | CCCCOc1nc(N)c2c(n1)N(Cc1ccc3c(c1)CN(CC1CC1)CC3)CC(=O)N2 [Example 70] | ≤ 0.03
40 | CCCCOc1nc(N)c2[nH]c(=O)c(=O)n(Cc3ccc(-c4cccc(CN5CCCC5)c4)cc3)c2n1 [Example 97] | ≤ 0.03
41 | Nc1nc(OCCC(F)(F)F)nc2c1NC(=O)CN2Cc1cccc(CN2CCCC2)c1 [Example 55] | ≤ 0.03
42 | Nc1nc(OC2CCCC2)nc2c1NC(=O)CN2Cc1cccc(CN2CCCC2)c1 [Example 21] | ≤ 0.03
43 | Nc1nc(OCC2CCOCC2)nc2c1NC(=O)CN2Cc1ccc(C(F)(F)F)nc1 [Example 118] | > 0.03
44 | COCCOc1nc(N)c2c(n1)N(Cc1ccc(-c3cccc(CN4CCCC4)c3)cc1)CC(=O)N2 [Example 94] | ≤ 0.03
45 | CCC(CC)COc1nc(N)c2c(n1)N(Cc1cccc(CN3CCCC3)c1)CC(=O)N2 [Example 31] | ≤ 0.03
46 | Nc1nc(O)nc2c1NC(=O)CN2Cc1cccc(CN2CCCC2)c1 [Example 63] | > 0.03
47 | CC(C)(C)COc1nc(N)c2c(n1)N(Cc1cccc(CN3CCCC3)c1)CC(=O)N2 [Example 14] | > 0.03
48 | CCCCOc1nc(N)c2c(n1)N(Cc1ccc(C(F)(F)F)nc1)CC(=O)N2 [Example 117] | > 0.03
49 | CCCCOc1nc(N)c2c(n1)N(Cc1cccc(CN3CCCC3)c1)C1(CC1)C(=O)N2 [Example 3, 4-Amino-2-n-butoxy-7-(1′″,2′″-ethylidene)-8-[3′-(pyrrolidin-1″-ylmethyl)-benzyl]-5,6,7,8-tetrahydropteridine-6-one] | > 0.03
50 | Nc1nc(OCCCCO)nc2c1NC(=O)CN2Cc1cccc(CN2CCCC2)c1 [Example 27] | > 0.03
51 | Nc1nc(NCC2CC2)nc2c1NC(=O)CN2Cc1cccc(CN2CCCC2)c1 [Example 39] | ≤ 0.03
